According to patent EP1210336B1, “SUBSTITUTED BENZIMIDAZOLES AS NON-NUCLEOSIDE INHIBITORS OF REVERSE TRANSCRIPTASE” (THE UNITED STATES OF AMERICA, as represented by the …, priority 1999, dated 2001):
Where two headings read alike, the source gives them in different places.

Experiments:
HIV-1 variant Y181C = assay: Cytopathic cell killing assay, cross-resistance profile, infected MT-4 cells; type: cell-based; details: isolate Y181C
Method in brief: (§1)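 Cells seeded at 5 x 10^3 per well and infected with pre-titered HIV at MOI giving full killing by day 6 (e.g., 0.01-0.05). Compounds tested in triplicate serial half-log dilutions. Viability measured after six days at 37°C by XTT formazan at 450 nm; TI50 = fold-difference between EC50 and IC50.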

[1] = tested on: HIV-1 isolate 4xAZT/Y181C; assay: as above; type: cell-based
Method in brief: as §1

HIV-1 variant A98G = assay: as above; type: cell-based
Method in brief: as §1

HIV-1 WT RT = molecular target: T1, HIV-1 WT RT (Human immunodeficiency virus type 1 group M subtype B, UniProt P03366); details: reported by Pauwels et al. (TIBO) and Buckheit et al. (thiazolobenzimidazole); read-out: IC50 for rC:dG; cited from earlier work
T1 construct: purified RT protein (0.015 mg/mL) was incubated in a 100 µL reaction mixture

WT virus (NL4-3) = assay: microbe, parasite or virus in culture; type: cell-based, HIV-1; details: for EC50: Human immunodeficiency virus 1, NL43, CEM-SS, read-out: EC50
Method in brief: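 CEM-SS cells (5 x 10^3/well) infected with HIV-1 at an MOI giving complete killing by day 6 (e.g., 0.01-0.05), with serial half-log compound dilutions in triplicate. After 6 days at 37°C, viability read by XTT reduction at 450 nm. CIC50 derived from protection against cytopathic killing.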

[2] = Human immunodeficiency virus 1, MT4, Table 4
[3] = Human immunodeficiency virus 1, MT4, Table 9
[4] = Human immunodeficiency virus 1, MT4, Table 4, isolate 4xAZT/Y181C
[5] = Human immunodeficiency virus 1, MT4, Table 8, isolate 4XAZT /Y181C
[6] = Human immunodeficiency virus 1, MT4, Table 4, isolate A98G
[7] = Human immunodeficiency virus 1, MT4, Table 8, isolate A9SG
[8] = Human immunodeficiency virus 1, MT4, Table 9, isolate A98G

| SMILES | EC50 (HIV-1 variant Y181C; [2]) | EC50 (HIV-1 variant Y181C; [3]) | EC50 [1, 4] | EC50 [1, 5] | EC50 ([1]; Human immunodeficiency virus 1, MT4, Table 9, isolate 4XAZT /Y181C) | EC50 (HIV-1 variant A98G; [6]) | EC50 (HIV-1 variant A98G; [7]) | EC50 (HIV-1 variant A98G; [8]) | IC50 (HIV-1 WT RT) | EC50 (HIV-1 variant Y181C; Human immunodeficiency virus 1, MT4, Table 10 (values in µM)) | cytotoxicity and anti-viral effect (summary graph) (WT virus (NL4-3); Figures 10-12, result in words) | EC50 (WT virus (NL4-3); Table 7, concentration reducing cell killing or virus production by 50%, HIV-1 WT) | EC50 (WT virus (NL4-3); Table 11, CEMSS/NL4-3, NRVC = reduction in viral CPE not seen (footnote)) | therapeutic index (WT virus (NL4-3); difference between efficacy of the drug and cellular toxicity, Figure 10) |
| --- | --- | --- | --- | --- | --- | --- | --- | --- | --- | --- | --- | --- | --- | --- |
| Fc1cccc(F)c1C1SCc2nc3ccccc3n21 (stereo not drawn) [TZB, 1-(2,6-difluorophenyl)-1H,3H-thiazolo[3,4-a]benzimidazole, reference compound] | 16.3 µM | > 10 µM | 14.5 µM | > 10 µM | > 10 µM | 17.7 µM | 10 µM | 10 µM | 0.5 µM |  |  |  |  |  |
| Cc1cccc2c1nc(-c1c(F)cccc1F)n2Cc1c(F)cccc1F [compound 33, 1-(2,6-difluorobenzyl)-2-(2,6-difluorophenyl)-4-methylbenzimidazole] | 6 µM | 4.3 µM | 3.5 µM | 3.5 µM |  | 1.4 µM | 27 µM | 2.7 µM |  | 6 µM | very effective therapeutic dose | 0.44 µM | 0.44 µM | greater than one log in concentration |
